Reference: PMC11089510 (Journal of Medicinal Chemistry, 2024)
Read-outs that look alike come from different tables or passages of the source.

Tests used:
NUDT5 [1] = target: T1, NUDT5 (Homo sapiens, UniProt Q9UKK9); test: NUDT5 catalytic assay (AMP-Glo); assay type: biochemical; conditions: for NUDT5 inhibition: concentrations of up to 50 μM; for NUDT5 IC50: supplementary CSV
Procedure: (§1) Inhibition activities of the compounds were determined using AMP-Glo system (Promega). The compounds were diluted from 50 μM to 0 μM in a final reaction containing 20 mM HEPES, 100 mM NaCl, 0.5 mM TCEP, 1 mM MgCl2, and 0.1% BSA, pH 7.4. […] The final DMSO concentration was 1% for all reactions. […] The reactions were further incubated with 4 μL of the detection solution for 1 h at rt. Luminescence signals were then measured in a PHERAstar FSX plate reader. Experiments were done in triplicate sets, and data were analyzed by GraphPad Prism 9. Inhibitor dose–response data were normalized to reactions containing vehicle only (1% v/v DMSO, 100% activity) and reactions containing 500 nM TH5427 (6) (1% v/v DMSO, 0% activity). Data are represented as the mean ± SD of two independent biological replicates.

BT-474 cells = test: Cell viability assay (CellTiter-Glo); assay type: cell-based; conditions: Homo sapiens, 72 h of incubation
Procedure: BT-474 cells were cultivated in DMEM containing 10% FBS at 37 °C and 5% CO2. […] Cells were trypsinized, counted, and diluted to 25,000 cells/mL in culture medium. 40 μL of cell suspension was seeded to each well, and plates were sealed with a breathable film and incubated for 72 h. Cell viability was determined using the CellTiter-Glo reagent following the manufacturer’s instructions (Promega). Luminescence signals were measured in a PHERAstar FS or FSX and analyzed by GraphPad Prism (v.9 or v.10). Data were normalized to DMSO.

recombinant human NUDT14 = target: T2, recombinant human NUDT14 (Homo sapiens, UniProt O95848); test: NUDT14 catalytic assay (AMP-Glo); assay type: biochemical
T2 sequence (O95848 1-222): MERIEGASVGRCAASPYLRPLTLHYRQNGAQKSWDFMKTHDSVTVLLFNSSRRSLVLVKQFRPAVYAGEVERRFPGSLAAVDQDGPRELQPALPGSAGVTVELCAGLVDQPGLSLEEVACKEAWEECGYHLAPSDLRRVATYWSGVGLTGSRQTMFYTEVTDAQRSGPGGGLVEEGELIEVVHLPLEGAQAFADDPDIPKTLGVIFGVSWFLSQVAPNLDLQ
Procedure: as §1

NUDT1 = NUDT1 (Homo sapiens, UniProt P36639); test: biochemical
NUDT16 = NUDT16 (Homo sapiens, UniProt Q96DE0); test: biochemical
Chain of NUDT16 (Q96DE0 whole entry): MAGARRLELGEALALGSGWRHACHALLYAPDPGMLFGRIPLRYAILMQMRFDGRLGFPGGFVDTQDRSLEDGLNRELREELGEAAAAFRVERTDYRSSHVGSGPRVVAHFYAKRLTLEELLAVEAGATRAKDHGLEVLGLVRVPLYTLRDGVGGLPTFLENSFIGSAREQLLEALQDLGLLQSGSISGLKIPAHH

NUDT9 = target: T3, NUDT9 (Homo sapiens, UniProt Q9BW91); test: biochemical
T3 sequence (Q9BW91 1-350): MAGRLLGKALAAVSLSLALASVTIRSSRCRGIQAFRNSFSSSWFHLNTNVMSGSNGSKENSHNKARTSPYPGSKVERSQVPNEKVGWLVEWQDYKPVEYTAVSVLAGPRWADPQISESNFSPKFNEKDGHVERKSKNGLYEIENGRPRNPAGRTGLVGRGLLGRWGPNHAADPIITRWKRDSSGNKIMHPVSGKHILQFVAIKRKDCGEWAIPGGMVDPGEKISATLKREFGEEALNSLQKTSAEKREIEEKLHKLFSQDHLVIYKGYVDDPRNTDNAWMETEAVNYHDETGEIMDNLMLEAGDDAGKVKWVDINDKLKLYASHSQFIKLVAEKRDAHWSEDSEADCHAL

NUDT16L1 = NUDT16L1 (Homo sapiens, UniProt Q9BRJ7); test: biochemical
Chain of NUDT16L1 (Q9BRJ7 whole entry): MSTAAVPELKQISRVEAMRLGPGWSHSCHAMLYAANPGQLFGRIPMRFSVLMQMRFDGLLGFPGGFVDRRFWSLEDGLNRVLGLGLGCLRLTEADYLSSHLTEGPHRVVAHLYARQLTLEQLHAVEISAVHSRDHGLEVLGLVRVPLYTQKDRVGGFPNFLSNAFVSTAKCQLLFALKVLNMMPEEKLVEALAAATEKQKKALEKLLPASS

NUDT12 = NUDT12 (Homo sapiens, UniProt Q9BQG2); test: biochemical
Chain of NUDT12 (Q9BQG2 whole entry): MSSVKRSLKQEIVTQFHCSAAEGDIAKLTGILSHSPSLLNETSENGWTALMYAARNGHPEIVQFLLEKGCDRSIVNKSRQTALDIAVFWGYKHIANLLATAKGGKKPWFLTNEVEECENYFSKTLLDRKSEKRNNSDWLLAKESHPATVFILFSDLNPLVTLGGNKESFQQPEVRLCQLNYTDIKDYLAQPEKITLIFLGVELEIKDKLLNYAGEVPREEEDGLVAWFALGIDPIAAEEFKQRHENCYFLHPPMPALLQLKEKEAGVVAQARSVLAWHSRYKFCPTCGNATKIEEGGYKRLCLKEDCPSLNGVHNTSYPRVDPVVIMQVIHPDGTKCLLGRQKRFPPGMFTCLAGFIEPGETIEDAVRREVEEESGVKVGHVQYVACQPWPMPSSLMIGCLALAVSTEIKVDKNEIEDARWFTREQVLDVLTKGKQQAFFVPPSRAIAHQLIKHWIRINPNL

NUDT15 = target: T4, NUDT15 (Homo sapiens, UniProt Q9NV35); test: biochemical
T4 sequence (Q9NV35 1-164): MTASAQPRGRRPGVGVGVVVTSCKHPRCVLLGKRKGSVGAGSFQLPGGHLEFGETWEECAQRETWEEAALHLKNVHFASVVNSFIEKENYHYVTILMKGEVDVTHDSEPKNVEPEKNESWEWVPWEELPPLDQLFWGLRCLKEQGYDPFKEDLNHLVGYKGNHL

NUDT17 = target: T5, NUDT17 (Homo sapiens, UniProt P0C025); test: biochemical
T5 sequence (P0C025 1-328): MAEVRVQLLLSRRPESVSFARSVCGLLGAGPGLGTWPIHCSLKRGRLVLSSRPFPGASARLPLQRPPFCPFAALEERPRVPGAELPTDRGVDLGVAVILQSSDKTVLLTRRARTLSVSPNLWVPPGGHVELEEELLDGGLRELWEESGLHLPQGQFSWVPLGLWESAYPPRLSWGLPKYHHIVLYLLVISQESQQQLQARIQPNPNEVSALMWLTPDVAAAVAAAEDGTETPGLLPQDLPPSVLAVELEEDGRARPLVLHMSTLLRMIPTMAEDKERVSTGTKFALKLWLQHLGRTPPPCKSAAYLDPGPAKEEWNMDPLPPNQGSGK

NUDT7 = NUDT7 (Homo sapiens, UniProt P0C024); test: biochemical
Chain of NUDT7 (P0C024 whole entry): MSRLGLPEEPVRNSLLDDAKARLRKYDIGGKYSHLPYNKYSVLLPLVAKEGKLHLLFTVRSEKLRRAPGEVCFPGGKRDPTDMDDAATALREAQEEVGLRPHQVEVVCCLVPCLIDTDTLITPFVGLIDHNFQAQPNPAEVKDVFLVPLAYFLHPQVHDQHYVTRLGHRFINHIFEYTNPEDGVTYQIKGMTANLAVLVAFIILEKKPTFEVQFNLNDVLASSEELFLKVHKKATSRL

NUDT18 = target: T6, NUDT18 (Homo sapiens, UniProt Q6ZVK8); test: biochemical
T6 sequence (Q6ZVK8 1-323): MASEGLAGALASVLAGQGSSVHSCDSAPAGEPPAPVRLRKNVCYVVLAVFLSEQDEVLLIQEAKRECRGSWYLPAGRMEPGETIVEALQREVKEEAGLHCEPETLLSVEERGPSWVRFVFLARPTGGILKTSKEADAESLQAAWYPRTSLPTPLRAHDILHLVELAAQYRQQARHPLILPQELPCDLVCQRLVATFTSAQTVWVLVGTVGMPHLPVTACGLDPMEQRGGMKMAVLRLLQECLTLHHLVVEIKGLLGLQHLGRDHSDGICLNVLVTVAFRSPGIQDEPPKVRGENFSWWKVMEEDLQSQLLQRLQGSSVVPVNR

NUDT5 [2] = target: T1, NUDT5; test: biochemical; parameters: 6xHis tag followed by TEV site (N, cleaved yes); made in house; host or cells: Escherichia coli (DE3)
[3] = target: T7, purified human NUDT14 protein (Homo sapiens, UniProt O95848); test: biochemical
T7 construct: 6xHis tag followed by TEV site (N, cleaved yes); made in house; host or cells: Escherichia coli (DE3)
T7 sequence (O95848 1-222): T2 sequence (O95848 1-222)

[4] = target: NanoLuc-NUDT5 in HEK293 cells (Homo sapiens, UniProt Q9UKK9); test: NUDT5 live-cell NanoBRET target engagement assay; assay type: cell-based; conditions: 2.5 nM CBH-004 tracer, 2 h
Procedure: Donor and acceptor signals were measured in a PHERAstar FSX or FS plate reader and analyzed by GraphPad Prism (v.9 or v.10). […] Data were then normalized to DMSO.

[5] = target: HiBiT-NUDT14 in intact HEK293 cells (Homo sapiens, UniProt O95848); test: HiBiT-NUDT14 cellular thermal shift assay (CETSA); assay type: cell-based
Procedure: The Nano-Glo HiBiT lytic detection system was used following the manufacturer’s instructions (Promega). In brief, 400,000 HEK293 cells/mL were reverse-transfected with N-terminal HiBiT tagged NUDT14 using FuGENE transfection reagent (Promega). After 24 h of incubation, cells were trypsinized and resuspended at 400,000 cells/mL in assay medium. The cells were divided into compound and untreated (DMSO) groups and treated accordingly. Ten μL of cells were seeded into each well in a 384-well white PCR plate and incubated for 1 h. After incubation, the samples were heated in a PCR thermocycler at the desired temperature gradient. The plate was allowed to stand for 5 min at rt, and 10 μL of Nano-Glo HiBiT lytic mix was added into each well. The signals were measured in a PHERAstar FSX and analyzed by GraphPad Prism (v.9 or v.10).

endogenous NUDT5 = endogenous NUDT5 (Homo sapiens, UniProt Q9UKK9); test: Affinity pull-down with Western blot for NUDT5; assay type: binding; conditions: affinity matrix, cell lysate
Procedure: When reaching about 80% confluency, cells were harvested, washed with PBS, and frozen at −80 °C. Lysates were generated by adding 3× pellet volume of Buffer A (50 mM tris pH 7.5, 0.8% v/v NP-40, 5% v/v glycerol, 1.5 mM MgCl2, 100 mM NaCl, 25 mM NaF, 1 mM Na3VO4, 1 mM PMSF, 1 mM DTT, 10 μg/mL TLCK, 1 μg/mL Leupeptin, 1 μg/mL Aprotinin, 1 μg/mL soybean trypsin) supplemented with 1 μL/mL of benzonase. To facilitate lysis, crude lysate was drawn 10 times with a needle and incubated for 30 min on ice before clearing by centrifugation.
Affinity matrices were washed 4 times with 1 mL Buffer A, and proteins were eluted 2× with 50 μL of 2× Laemmli buffer containing 25 mM DTT in PBS for 5 min at 95 °C.

[6] = target: the molecule itself; test: crystal structure; NUDT14 (20 mg/mL) cocrystallised with compound 9 at a molar ratio of 1:5; 0.2 M MgCl2, 0.1 M bis-tris pH 6.5, 25% PEG3350; sitting drop, 4 °C; dimer of chains A and B
[7] = read-out: NUDT5 IC50, AMP-Glo, 1 nM NUDT5, 10 μM ADPr, 20 min, rt
[8] = 1 nM NUDT14, 10 μM ADPr, 1 h, rt

Q: Which IC50 (NUDT5 [1]; [7]) does the source give for `C=CC(=O)N1CCC[C@@H](n2nc(-c3ccc(Oc4ccccc4)cc3)c3c(N)ncnc32)C1` [Compound 1, ibrutinib, reference compound] here?
A: Its IC50 is 837 ± 329 nM.

Q: And the IC50 (BT-474 cells)?
A: The IC50 was 27 ± 11 nM.

Q: What about the IC50 (recombinant human NUDT14; [8]) of the same molecule?
A: Its IC50 is 990 ± 110 nM.

Q: How did the Kd (NUDT1) turn out when `C=CC(=O)N1CCC[C@@H](n2nc(-c3ccc(Oc4ccccc4)cc3)c3c(N)ncnc32)C1` [Compound 1, ibrutinib] was run?
A: The Kd was 3500 ± 280 nM.

Q: And the Kd (NUDT16)?
A: Its Kd is over 100000 nM.

Q: What about the Kd (NUDT9) of the same molecule?
A: Its Kd is over 100000 nM.

Q: What about the Kd (NUDT16L1) of the same molecule?
A: Its Kd is over 100000 nM.

Q: And the Kd (NUDT12)?
A: Its Kd is over 100000 nM.

Q: What about the Kd (NUDT15) of the same molecule?
A: The Kd was over 100000 nM.

Q: What about the Kd (NUDT17) of the same molecule?
A: The Kd was over 100000 nM.

Q: And the Kd (NUDT7)?
A: Its Kd is over 100000 nM.

Q: What about the Kd (NUDT18) of the same molecule?
A: The Kd was over 100000 nM.

Q: What about the Kd (NUDT5 [2]) of the same molecule?
A: The Kd was 209 ± 62 nM.

Q: And the Kd [3]?
A: The Kd was 1900 ± 500 nM.

Q: How did the NUDT5 inhibition (NUDT5 [1]) turn out when `CC#CC(=O)N1CCC[C@H]1c1nc(-c2ccc(C(=O)Nc3ccccn3)cc2)c2c(N)nccn12` [Compound 2, acalabrutinib, reference compound] was run?
A: Its NUDT5 inhibition is “did not show any inhibition”.

Q: What about the “NUDT5 IC50” value (NUDT5 [1]; AMP-Glo) of the same molecule?
A: The value was “not active”.

Q: Which results are given for `CC#CC(=O)N[C@H]1CCCN(c2c(F)cc(C(N)=O)c3[nH]c(C)c(C)c23)C1` [Compound 3, branebrutinib, reference compound]?
A: NUDT5 inhibition (NUDT5 [1]): did not show any inhibition; NUDT5 IC50 (NUDT5 [1]; AMP-Glo): not active

Q: Which results are given for `Cn1c(=O)c2c(nc(N3CCNCC3)n2Cc2nnc(-c3ccc(Cl)c(Cl)c3)o2)n(C)c1=O` [Compound 6, TH5427]?
A: EC50 [4]: 4 ± 1 nM; NUDT14 stabilisation compared to DMSO [5]: does not stabilise NUDT14

Q: For `Cn1c(=O)c2c(nc(N3CCN(CCCCN)CC3)n2Cc2nnc(-c3ccc(Cl)c(Cl)c3)o2)n(C)c1=O.O=C(O)C(F)(F)F` [Compound 7, 4-(4-(7-((5-(3,4-Dichlorophenyl)-1,3,4-oxadiazol-2-yl)methyl)-1,3-dimethyl-2,6-dioxo-2,3,6,7-tetrahydro-1H-purin-8-yl)piperazin-1-yl)butan-1-aminium Trifluoroacetate], which “binding to endogenous NUDT5 (pull-down, Western blot)” value (endogenous NUDT5) is on record?
A: The value was “retained binding”.

Q: `Cn1nc(-c2ccc(Oc3ccccc3)cc2)c2c(N)ncnc21` [Compound 10, 1-Methyl-3-(4-phenoxyphenyl)-1H-pyrazolo[3,4-d]pyrimidin-4-amine] was tested. Which IC50 (recombinant human NUDT14; [8]) did it give?
A: Its IC50 is 263 ± 31 nM.

Q: How did the IC50 (recombinant human NUDT14; [8]) turn out when `Nc1ncnc2[nH]nc(-c3ccc(Oc4ccccc4)cc3)c12` [Compound 11, 3-(4-Phenoxyphenyl)-1H-pyrazolo[3,4-d]pyrimidin-4-amine] was run?
A: The IC50 was 519 ± 84 nM.

Q: What does the source list for `C=CC(=O)N1CC=C(c2nn(C3CCN(C)CC3)c3ncnc(N)c23)CC1` [Compound 12, 1-(4-(4-Amino-1-(1-methylpiperidin-4-yl)-1H-pyrazolo[3,4-d]pyrimidin-3-yl)-3,6-dihydropyridin-1(2H)-yl)prop-2-en-1-one]?
A: IC50 (NUDT5 [1]; [7]): > 50000 nM; NUDT5 IC50 (NUDT5 [1]; AMP-Glo): not active; IC50 (recombinant human NUDT14; [8]): > 50000 nM; NUDT14 IC50 (recombinant human NUDT14; supplementary CSV): not active

Q: How did the IC50 (NUDT5 [1]) turn out when `C=CC(=O)N1CCC=C(c2nn(C3CCN(C)CC3)c3ncnc(N)c23)C1` [Compound 13, 1-(5-(4-Amino-1-(1-methylpiperidin-4-yl)-1H-pyrazolo[3,4-d]pyrimidin-3-yl)-3,6-dihydropyridin-1(2H)-yl)prop-2-en-1-one] was run?
A: The IC50 was over 50000 nM.

Q: And the “NUDT5 IC50” value (NUDT5 [1]; AMP-Glo)?
A: Its value is “not active”.

Q: And the IC50 (recombinant human NUDT14; [8])?
A: Its IC50 is 3720 ± 190 nM.

Q: With `C=CC(=O)NCc1ccc(-c2nn(C3CCN(C)CC3)c3ncnc(N)c23)cc1` [Compound 14, N-(4-(4-Amino-1-(1-methylpiperidin-4-yl)-1H-pyrazolo[3,4-d]pyrimidin-3-yl)benzyl)acrylamide] as the molecule, how does the IC50 (recombinant human NUDT14; [8]) read?
A: Its IC50 is 1640 ± 140 nM.

Q: Which IC50 (NUDT5 [1]) does the source give for `C=CC(=O)N1CCC(c2nn(C3CCN(C)CC3)c3ncnc(N)c23)CC1` [Compound 15, 1-(4-(4-Amino-1-(1-methylpiperidin-4-yl)-1H-pyrazolo[3,4-d]pyrimidin-3-yl)piperidin-1-yl)prop-2-en-1-one] here?
A: The IC50 was over 50000 nM.

Q: And the “NUDT5 IC50” value (NUDT5 [1]; AMP-Glo)?
A: Its value is “not active”.

Q: What about the IC50 (recombinant human NUDT14; [8]) of the same molecule?
A: Its IC50 is over 50000 nM.

Q: What about the “NUDT14 IC50” value (recombinant human NUDT14; [8]) of the same molecule?
A: The value was “inactive”.

B1: NUDT14 (enzyme, human, UniProt O95848 1-222, looked up)
chain: T2 sequence (O95848 1-222)
Q: With B1 as the molecule, how does the “stoichiometry N” value [6] read?
A: Its value is 2.
